Measurements from US4228292A, “N-Substituted benzothiazolines and benzoxazolines and their use as herbicides and plant growth regulants” (Monsanto Company, priority 1978, dated 1980).

What was measured:
[1] = system: Crabgrass; test: post-emergent herbicidal test; type: in vivo; conditions: T; further: ranges in brackets are in %
Procedure, shortened: (§1)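 Two- or three-week-old plants were sprayed with a solution or wettable powder suspension of the active ingredient plus surfactant at the desired test rate. The treated plants were kept in a greenhouse, and effects were observed and recorded approximately two or four weeks later as a post-emergent herbicidal rating.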

[2] = system: Hemp Sesbania; test: post-emergent herbicidal test; type: in vivo; conditions: R; further: ranges in brackets are in %
Procedure, shortened: as §1

[3] = system: Panicum Spp; test: post-emergent herbicidal test; type: in vivo; conditions: S; further: ranges in brackets are in %
Procedure, shortened: as §1

[4] = system: Rice; test: post-emergent herbicidal test; type: in vivo; conditions: O; further: ranges in brackets are in %
Procedure, shortened: as §1

[5] = system: Sorghum; test: post-emergent herbicidal test; type: in vivo; conditions: P; further: ranges in brackets are in %
Procedure, shortened: as §1

[6] = system: Soybean; test: post-emergent herbicidal test; type: in vivo; conditions: L; further: ranges in brackets are in %
Procedure, shortened: as §1

[7] = system: Sugar Beet; test: post-emergent herbicidal test; type: in vivo; conditions: M; further: ranges in brackets are in %
Procedure, shortened: as §1

[8] = system: Wheat; test: post-emergent herbicidal test; type: in vivo; conditions: N; further: ranges in brackets are in %
Procedure, shortened: as §1

[9] = system: Wild Buckwheat; test: post-emergent herbicidal test; type: in vivo; conditions: Q; further: ranges in brackets are in %
Procedure, shortened: as §1

[10] = system: soybean plants; test: plant growth regulating activity on soybean plants; type: in vivo, variety Williams; conditions: 2.8 kg/h
Experimental: A number of soybean plants, variety Williams, were grown from seeds in plastic pots in the greenhouse for a period of one week at which time the plants are thinned to one plant per pot. When the second trifoliate leaf (three weeks) was fully expanded, the plants were treated with a solution of the active ingredient in acetone and water. Aqueous Tween 20 was used as a surfactant.
When the fifth trifoliate leaf (four to five weeks) was fully expanded, the treated plants were compared with the non-treated control plants and the observations recorded.

COC(=N)Cn1c(=O)sc2ccc(Cl)cc21 [Compound 27]
1 (25-49): post-emergent herbicidal rating ([6]; 0.28 kg/h, 2 WAT) | post-emergent herbicidal rating ([7]; 0.28 kg/h, 2 WAT) | post-emergent herbicidal rating ([8]; 5.6 kg/h, 4 WAT)
0 (0-24): post-emergent herbicidal rating ([1]; 0.28 kg/h, 2 WAT) | post-emergent herbicidal rating ([1]; 1.12 kg/h, 4 WAT) | post-emergent herbicidal rating ([1]; 5.6 kg/h, 4 WAT) | post-emergent herbicidal rating ([2]; 0.28 kg/h, 2 WAT) | post-emergent herbicidal rating ([3]; 0.28 kg/h, 2 WAT) | post-emergent herbicidal rating ([3]; 1.12 kg/h, 4 WAT) | post-emergent herbicidal rating ([3]; 5.6 kg/h, 4 WAT) | post-emergent herbicidal rating ([4]; 0.28 kg/h, 2 WAT) | post-emergent herbicidal rating ([4]; 1.12 kg/h, 4 WAT) | post-emergent herbicidal rating ([4]; 5.6 kg/h, 4 WAT) | post-emergent herbicidal rating ([5]; 0.28 kg/h, 2 WAT) | post-emergent herbicidal rating ([5]; 1.12 kg/h, 4 WAT) | post-emergent herbicidal rating ([5]; 5.6 kg/h, 4 WAT) | post-emergent herbicidal rating ([8]; 0.28 kg/h, 2 WAT) | post-emergent herbicidal rating ([8]; 1.12 kg/h, 4 WAT) | post-emergent herbicidal rating ([9]; 0.28 kg/h, 2 WAT)
2 (50-74): post-emergent herbicidal rating ([2]; 1.12 kg/h, 4 WAT) | post-emergent herbicidal rating ([6]; 1.12 kg/h, 4 WAT)
4 (100): post-emergent herbicidal rating ([2]; 5.6 kg/h, 4 WAT) | post-emergent herbicidal rating ([9]; 5.6 kg/h, 4 WAT)
3 (75-99): post-emergent herbicidal rating ([6]; 5.6 kg/h, 4 WAT) | post-emergent herbicidal rating ([7]; 1.12 kg/h, 4 WAT) | post-emergent herbicidal rating ([7]; 5.6 kg/h, 4 WAT) | post-emergent herbicidal rating ([9]; 1.12 kg/h, 4 WAT)
Plants died.: plant growth regulant observations [10]
